pEC50: −log10 of the molar value. Blank lines part the entries; values can stand above or below the compound they belong to.
Molecular target: human TMEM16A (TMEM16Aabc variant) (Homo sapiens, UniProt Q5XXA6, DEL476-501, form not given)
Assay: Automated whole-cell patch clamp (Qpatch) TMEM16A potentiator assay in FRT cells stably expressing human TMEM16A
Type: cell-based
Conditions: for % Potentiation @ 3.33 μM Avg: 3.33 μM solution of test compound, percentage increase of baseline TMEM16A current; for pEC50: calculated EC50, Qpatch TMEM16A current at +70 mV
Procedure, shortened: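 Potentiation was read as the rise in peak +70 mV current over baseline (%), from cumulative 5-min additions of compound. Recordings used whole-cell automated patch of FRT cells stably carrying human TMEM16Aabc, with pipette Ca2+ buffered to give ~20% maximal current. EC50 and efficacy came from concentration-response fits.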

human TMEM16A (TMEM16Aabc variant), sequence (Q5XXA6 with tags, fused parts or gaps DEL476-501): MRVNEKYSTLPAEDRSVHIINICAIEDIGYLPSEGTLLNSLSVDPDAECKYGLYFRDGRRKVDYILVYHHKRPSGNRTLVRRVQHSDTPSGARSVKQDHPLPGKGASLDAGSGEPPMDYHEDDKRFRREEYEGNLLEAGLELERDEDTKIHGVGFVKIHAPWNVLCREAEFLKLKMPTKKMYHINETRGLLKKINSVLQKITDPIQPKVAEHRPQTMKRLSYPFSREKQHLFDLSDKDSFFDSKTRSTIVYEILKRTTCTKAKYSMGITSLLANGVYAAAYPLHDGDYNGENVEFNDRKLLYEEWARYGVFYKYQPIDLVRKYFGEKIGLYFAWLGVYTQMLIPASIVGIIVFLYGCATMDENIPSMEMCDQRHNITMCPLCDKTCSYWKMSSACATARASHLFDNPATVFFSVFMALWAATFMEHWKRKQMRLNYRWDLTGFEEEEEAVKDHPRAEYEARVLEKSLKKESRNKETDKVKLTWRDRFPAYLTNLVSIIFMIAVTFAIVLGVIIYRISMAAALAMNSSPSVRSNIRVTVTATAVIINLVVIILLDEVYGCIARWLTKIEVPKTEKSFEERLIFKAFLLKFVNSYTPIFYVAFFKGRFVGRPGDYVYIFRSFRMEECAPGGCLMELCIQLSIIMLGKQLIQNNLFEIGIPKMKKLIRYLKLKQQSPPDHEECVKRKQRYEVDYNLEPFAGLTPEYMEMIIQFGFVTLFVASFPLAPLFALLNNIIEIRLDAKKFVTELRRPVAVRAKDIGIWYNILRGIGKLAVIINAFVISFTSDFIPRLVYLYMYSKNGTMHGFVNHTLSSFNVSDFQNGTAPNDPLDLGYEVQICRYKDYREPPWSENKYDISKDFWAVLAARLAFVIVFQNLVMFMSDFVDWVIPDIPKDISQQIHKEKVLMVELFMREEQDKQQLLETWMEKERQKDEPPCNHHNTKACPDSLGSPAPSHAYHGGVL

Structure (SMILES): COc1ccc(CC(=O)Nc2cccc(C(=O)NC(C)(C)C)c2)c(O)c1 [Example 2.14, N-tert-Butyl-3-[[2-(2-hydroxy-4-methoxy-phenyl)acetyl]amino]benzamide]
- % Potentiation @ 3.33 μM Avg: 100%
- pEC50: 5.75

Structure (SMILES): O=C(Cc1cc(Cl)ccc1O)Nc1ccnc(C(=O)NC2(CCO)CCOCC2)c1 [Example 42, 4-[[2-(5-Chloro-2-hydroxy-phenyl)acetyl]amino]-N-[4-(2-hydroxyethyl)tetrahydropyran-4-yl]pyridine-2-carboxamide]
- % Potentiation @ 3.33 μM Avg: 143%
- pEC50: 6.12

Structure (SMILES): CC(C)(C)NC(=O)c1cc(NC(=O)Cc2c(O)c(Br)cc(Cl)c2Br)ccn1 [Example 3.11b, N-tert-Butyl-4-[[2-(2,5-dibromo-3-chloro-6-hydroxy-phenyl)acetyl]amino]pyridine-2-carboxamide]
- % Potentiation @ 3.33 μM Avg: 168%
- pEC50: 6.39

Structure (SMILES): CC1(NC(=O)c2cc(NC(=O)Cc3ccccc3Cl)ccn2)CC1 [Example 30.8, 4-[[2-(2-Chlorophenyl)acetyl]amino]-N-(1-methylcyclopropyl)pyridine-2-carboxamide]
- % Potentiation @ 3.33 μM Avg: 121%
- pEC50: 6.15

Structure (SMILES): C#CC(C)(C)NC(=O)c1cc(NC(=O)Cc2cccc(C(F)(F)F)c2)ccn1 [Example 5.37, N-(1,1-Dimethylprop-2-ynyl)-4-[[2-[3-(trifluoromethyl)phenyl]acetyl]amino]pyridine-2-carboxamide]
- % Potentiation @ 3.33 μM Avg: 117%
- pEC50: 6.82

Structure (SMILES): CC(C)(CO)NC(=O)c1cc(NC(=O)Cc2cc(Cl)ccc2O)ccn1 [Example 32.7, 4-[[2-(5-Chloro-2-hydroxy-phenyl)acetyl]amino]-N-(2-hydroxy-1,1-dimethyl-ethyl)pyridine-2-carboxamide]
- % Potentiation @ 3.33 μM Avg: 111%
- pEC50: 6.70

Structure (SMILES): CC(C)(C)NC(=O)c1cc(NC(=O)CC2C3CC4CC(C3)CC2C4)ccn1 (stereo not drawn) [Example 5.1, 4-[[2-(2-Adamantyl)acetyl]amino]-N-tert-butyl-pyridine-2-carboxamide]
- % Potentiation @ 3.33 μM Avg: 140%
- pEC50: 6.06

- % Potentiation @ 3.33 μM Avg: 58%
Structure (SMILES): CC(C)(C#N)NC(=O)c1cc(NC(=O)C2(C)CCCC2)ccn1 [Example 83.4, N-(1-Cyano-1-methyl-ethyl)-4-[(1-methylcyclopentanecarbonyl)amino]pyridine-2-carboxamide]

- % Potentiation @ 3.33 μM Avg: 94%
Structure (SMILES): CC(C)(C)NC(=O)c1cc(NC(=O)C2CCc3ccccc32)ccn1 (stereo not drawn) [Example 5.22, N-tert-Butyl-4-(indane-1-carbonylamino)pyridine-2-carboxamide]

Structure (SMILES): CC(C)(C)NC(=O)CC(C)(C)NC(=O)c1cc(NC(=O)Cc2cc(Cl)ccc2O)ccn1 [Example 49, N-[3-(tert-Butylamino)-1,1-dimethyl-3-oxo-propyl]-4-[[2-(5-chloro-2-hydroxy-phenyl)acetyl]amino]pyridine-2-carboxamide]
- % Potentiation @ 3.33 μM Avg: 226%
- pEC50: 6.17

- % Potentiation @ 3.33 μM Avg: 38%
Structure (SMILES): N#CC1(NC(=O)c2cccc(NC(=O)Cc3cc(F)ccc3O)c2)CCOCC1 [Example 41, N-(4-Cyanotetrahydropyran-4-yl)-3-[[2-(5-fluoro-2-hydroxy-phenyl)acetyl]amino] benzamide]

Structure (SMILES): CC(C)(C)NC(=O)c1cccc(NC(=O)Cc2cc(Br)ccc2O)c1 [Example 2.10, 3-[[2-(5-Bromo-2-hydroxy-phenyl)acetyl]amino]-N-tert-butyl-benzamide]
- % Potentiation @ 3.33 μM Avg: 133%
- pEC50: 6.34

- % Potentiation @ 3.33 μM Avg: 63%
Structure (SMILES): COc1ccc(C(=O)NC(C)(C)C)cc1NC(=O)Cc1cc(Cl)ccc1O [Example 16, N-tert-Butyl-3-[[2-(5-chloro-2-hydroxy-phenyl)acetyl]amino]-4-methoxy-benzamide]

Structure (SMILES): N#CC1(NC(=O)c2cc(NC(=O)Cc3ccc(Cl)c(O)c3)ccn2)CCOCC1 [Example 92, 4-[[2-(4-Chloro-3-hydroxy-phenyl)acetyl]amino]-N-(4-cyanotetrahydropyran-4-yl)pyridine-2-carboxamide]
- % Potentiation @ 3.33 μM Avg: 133%
- pEC50: 6.96
